In patent publication US9833497B2, “Human originated EGF domain proteins and use of the same” (CHENGDU SOURCEBIO LIMITED-LIABILITY COMPANY, priority 2013, dated 2017):

Columns and labels:
Format in all cases: cell-based
E. coli DH5α = assay: Antibacterial activity: MIC and growth curve against E. coli DH5α in 96-well plate; conditions: minimal inhibitory concentration against E. coli DH5α; 96-well plate, 5×10^5 CFU/mL, 37° C., judged after 8 h
Summary of the method: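 Log-phase DH5α (OD600 about 0.5, 37° C, 185 rpm in LB) was pelleted, resuspended in fresh LB and seeded at 5×10^5 CFU/mL with recombinant protein at 50, 25 and 12.5 μg/mL (two-fold series), in triplicate. Plates were shaken at 175 rpm, 37° C, and OD600 was read every 30 min. MIC was the lowest concentration with no growth.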

E. coli BL21 = assay: MIC against Gram-negative bacteria: E. coli BL21; conditions: for MIC (μg/mL) E. coli BL21 / MIC E. coli BL21: 5×10^5 CFU/mL
Summary of the method: (§1)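 Two-fold serial dilutions of each purified human EGF domain protein, three replicate wells per level, were combined with bacteria at a final 5×10^5 CFU/mL in LB. Cultures were shaken at 175 rpm, 37° C. The MIC was taken as the minimum concentration preventing growth.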

Pseudomonas aeruginosa = assay: MIC against Gram-negative bacteria: Pseudomonas aeruginosa; conditions: for MIC (μg/mL) P. aeruginosa / MIC P. aeruginosa: 5×10^5 CFU/mL
Summary of the method: as §1

Klebsiella pneumonia = assay: MIC against Gram-negative bacteria: Klebsiella pneumonia; conditions: for MIC (μg/mL) K. pneumonia / MIC K. pneumonia: 5×10^5 CFU/mL
Summary of the method: as §1

Enterobacter cloacae = assay: MIC against Gram-negative bacteria: Enterobacter cloacae; conditions: for MIC (μg/mL) E. cloacae / MIC E. cloacae: 5×10^5 CFU/mL
Summary of the method: as §1

Aeromonas hydrophila = assay: MIC against Gram-negative bacteria: Aeromonas hydrophila; conditions: for MIC (μg/mL) A. hydrophila / MIC A. hydrophila: 5×10^5 CFU/mL
Summary of the method: as §1

Citrobacter diversus = assay: MIC against Gram-negative bacteria: Citrobacter diversus; conditions: for MIC (μg/mL) C. diversus / MIC C. diversus: 5×10^5 CFU/mL
Summary of the method: as §1

Moraxella catarrhalis = assay: MIC against Gram-negative bacteria: Moraxella catarrhalis; conditions: for MIC (μg/mL) M. catarrhalis / MIC M. catarrhalis: 5×10^5 CFU/mL
Summary of the method: as §1

Proteus mirabilis = assay: MIC against Gram-negative bacteria: Proteus mirabilis; conditions: for MIC (μg/mL) P. mirabilis / MIC P. mirabilis: 5×10^5 CFU/mL
Summary of the method: as §1

Proteus vulgaris = assay: MIC against Gram-negative bacteria: Proteus vulgaris; conditions: for MIC (μg/mL) P. vulgaris / MIC P. vulgaris: 5×10^5 CFU/mL
Summary of the method: as §1

Serratia marcescens = assay: MIC against Gram-negative bacteria: Serratia marcescens; conditions: for MIC (μg/mL) S. marcescens / MIC S. marcescens: 5×10^5 CFU/mL
Summary of the method: as §1

[1] = E. coli BL21, 10 h cultivation at 37° C.
[2] = P. aeruginosa, 10 h cultivation at 37° C.
[3] = K. pneumonia, 10 h cultivation at 37° C.
[4] = E. cloacae, 10 h cultivation at 37° C.
[5] = A. hydrophila, 10 h cultivation at 37° C.
[6] = C. diversus, 10 h cultivation at 37° C.
[7] = M. catarrhalis, 10 h cultivation at 37° C.
[8] = P. mirabilis, 10 h cultivation at 37° C.
[9] = P. vulgaris, 10 h cultivation at 37° C.
[10] = S. marcescens, 10 h cultivation at 37° C.
[11] = E. coli BL21, 96-well plate, 37° C., 10 h
[12] = Pseudomonas aeruginosa, 96-well plate, 37° C., 10 h
[13] = Klebsiella pneumonia, 96-well plate, 37° C., 10 h
[14] = Enterobacter cloacae, 96-well plate, 37° C., 10 h
[15] = Aeromonas hydrophila, 96-well plate, 37° C., 10 h
[16] = Citrobacter diversus, 96-well plate, 37° C., 10 h
[17] = Moraxella catarrhalis, 96-well plate, 37° C., 10 h
[18] = Proteus mirabilis, 96-well plate, 37° C., 10 h
[19] = Proteus vulgaris, 96-well plate, 37° C., 10 h
[20] = Serratia marcescens, 96-well plate, 37° C., 10 h
[21] = 10 h cultivation at 37° C., two-fold serial dilution

Substance: PRT1042 (SGFFCPSTHSCQNGGVFQTPQGSCSCPPGWMGTICS; listed as Homo sapiens)
- MIC (E. coli DH5α): 25 µg/mL
- MIC (E. coli BL21; [1]): 50 µg/mL
- MIC (Pseudomonas aeruginosa; [2]): 12.5 µg/mL
- MIC (Klebsiella pneumonia; [3]): 25 µg/mL
- MIC (Enterobacter cloacae; [4]): 50 µg/mL
- MIC (Aeromonas hydrophila; [5]): 50 µg/mL
- MIC (Citrobacter diversus; [6]): 50 µg/mL
- MIC (Moraxella catarrhalis; [7]): 12.5 µg/mL
- MIC (Proteus mirabilis; [8]): 50 µg/mL
- MIC (Proteus vulgaris; [9]): 25 µg/mL
- MIC (Serratia marcescens; [10]): 50 µg/mL

Substance: PRT111 (DLDECASRSKSGEEDPQPQCQHLCHNYVGGYFCSCRPGYELQEDTHSCQ; listed as Homo sapiens)
- MIC (E. coli DH5α): 12.5 µg/mL
- MIC (μg/mL) E. coli BL21 (E. coli BL21; [11]): 12.5 µg/mL
- MIC (μg/mL) P. aeruginosa (Pseudomonas aeruginosa; [12]): 12.5 µg/mL
- MIC (μg/mL) K. pneumonia (Klebsiella pneumonia; [13]): 12.5 µg/mL
- MIC (μg/mL) E. cloacae (Enterobacter cloacae; [14]): 50 µg/mL
- MIC (μg/mL) A. hydrophila (Aeromonas hydrophila; [15]): 25 µg/mL
- MIC (μg/mL) C. diversus (Citrobacter diversus; [16]): 12.5 µg/mL
- MIC (μg/mL) M. catarrhalis (Moraxella catarrhalis; [17]): 25 µg/mL
- MIC (μg/mL) P. mirabilis (Proteus mirabilis; [18]): 50 µg/mL
- MIC (μg/mL) P. vulgaris (Proteus vulgaris; [19]): 25 µg/mL
- MIC (μg/mL) S. marcescens (Serratia marcescens; [20]): 12.5 µg/mL

Substance: PRT1141 (EINECSSEPCKNNGTCVDLTNRFFCNCEPEYHGPFCE; listed as Homo sapiens)
- MIC (E. coli DH5α): 50 µg/mL
- MIC E. coli BL21 (E. coli BL21; [21]): 12.5 µg/mL
- MIC P. aeruginosa (Pseudomonas aeruginosa; [21]): 50 µg/mL
- MIC K. pneumonia (Klebsiella pneumonia; [21]): 12.5 µg/mL
- MIC E. cloacae (Enterobacter cloacae; [21]): 50 µg/mL
- MIC A. hydrophila (Aeromonas hydrophila; [21]): 12.5 µg/mL
- MIC C. diversus (Citrobacter diversus; [21]): 25 µg/mL
- MIC M. catarrhalis (Moraxella catarrhalis; [21]): 50 µg/mL
- MIC P. mirabilis (Proteus mirabilis; [21]): 25 µg/mL
- MIC P. vulgaris (Proteus vulgaris; [21]): 12.5 µg/mL
- MIC S. marcescens (Serratia marcescens; [21]): 25 µg/mL

Substance: PRT264 (SGQCLCRSGFAGTACELCAPGAFGPHCQAC; listed as Homo sapiens)
- MIC (E. coli DH5α): 12.5 µg/mL
- MIC (μg/mL) E. coli BL21 (E. coli BL21; [1]): 50 µg/mL
- MIC (μg/mL) P. aeruginosa (Pseudomonas aeruginosa; [2]): 12.5 µg/mL
- MIC (μg/mL) K. pneumonia (Klebsiella pneumonia; [3]): 50 µg/mL
- MIC (μg/mL) E. cloacae (Enterobacter cloacae; [4]): 12.5 µg/mL
- MIC (μg/mL) A. hydrophila (Aeromonas hydrophila; [5]): 25 µg/mL
- MIC (μg/mL) C. diversus (Citrobacter diversus; [6]): 50 µg/mL
- MIC (μg/mL) M. catarrhalis (Moraxella catarrhalis; [7]): 25 µg/mL
- MIC (μg/mL) P. mirabilis (Proteus mirabilis; [8]): 12.5 µg/mL
- MIC (μg/mL) P. vulgaris (Proteus vulgaris; [9]): 25 µg/mL
- MIC (μg/mL) S. marcescens (Serratia marcescens; [10]): 12.5 µg/mL

Substance: PRT1051 (EQKLCKLRKGNCSSTVCGQDLQSHLCMCAEGYALSRDRKYCE; listed as Homo sapiens)
- MIC (E. coli DH5α): 50 µg/mL
- MIC E. coli BL21 (E. coli BL21; [21]): 12.5 µg/mL
- MIC P. aeruginosa (Pseudomonas aeruginosa; [21]): 25 µg/mL
- MIC K. pneumonia (Klebsiella pneumonia; [21]): 12.5 µg/mL
- MIC E. cloacae (Enterobacter cloacae; [21]): 25 µg/mL
- MIC A. hydrophila (Aeromonas hydrophila; [21]): 12.5 µg/mL
- MIC C. diversus (Citrobacter diversus; [21]): 12.5 µg/mL
- MIC M. catarrhalis (Moraxella catarrhalis; [21]): 12.5 µg/mL
- MIC P. mirabilis (Proteus mirabilis; [21]): 50 µg/mL
- MIC P. vulgaris (Proteus vulgaris; [21]): 12.5 µg/mL
- MIC S. marcescens (Serratia marcescens; [21]): 50 µg/mL

Substance: PRT68 (RSGRCANGVCKNGGTCVNLLIGGFHCVCPPGEYERPYCE; listed as Homo sapiens)
- MIC (E. coli DH5α): 12.5 µg/mL
- MIC (μg/mL) E. coli BL21 (E. coli BL21; [11]): 25 µg/mL
- MIC (μg/mL) P. aeruginosa (Pseudomonas aeruginosa; [12]): 12.5 µg/mL
- MIC (μg/mL) K. pneumonia (Klebsiella pneumonia; [13]): 25 µg/mL
- MIC (μg/mL) E. cloacae (Enterobacter cloacae; [14]): 12.5 µg/mL
- MIC (μg/mL) A. hydrophila (Aeromonas hydrophila; [15]): 12.5 µg/mL
- MIC (μg/mL) C. diversus (Citrobacter diversus; [16]): 12.5 µg/mL
- MIC (μg/mL) M. catarrhalis (Moraxella catarrhalis; [17]): 12.5 µg/mL
- MIC (μg/mL) P. mirabilis (Proteus mirabilis; [18]): 12.5 µg/mL
- MIC (μg/mL) P. vulgaris (Proteus vulgaris; [19]): 12.5 µg/mL
- MIC (μg/mL) S. marcescens (Serratia marcescens; [20]): 100 µg/mL

Substance: PRT640 (DMDECQDPSSCIDGQCVNTEGSYNCFCTHPMVLDASE; listed as Homo sapiens)
- MIC (E. coli DH5α): 12.5 µg/mL
- MIC E. coli BL21 (E. coli BL21; 96-well plate, 37° C., 10 h): 25 µg/mL
- MIC P. aeruginosa (Pseudomonas aeruginosa; 96-well plate, 37° C., 10 h): 50 µg/mL
- MIC K. pneumonia (Klebsiella pneumonia; 96-well plate, 37° C., 10 h): 12.5 µg/mL
- MIC E. cloacae (Enterobacter cloacae; 96-well plate, 37° C., 10 h): 25 µg/mL
- MIC A. hydrophila (Aeromonas hydrophila; 96-well plate, 37° C., 10 h): 50 µg/mL
- MIC C. diversus (Citrobacter diversus; 96-well plate, 37° C., 10 h): 12.5 µg/mL
- MIC M. catarrhalis (Moraxella catarrhalis; 96-well plate, 37° C., 10 h): 25 µg/mL
- MIC P. mirabilis (Proteus mirabilis; 96-well plate, 37° C., 10 h): 50 µg/mL
- MIC P. vulgaris (Proteus vulgaris; 96-well plate, 37° C., 10 h): 12.5 µg/mL
- MIC S. marcescens (Serratia marcescens; 96-well plate, 37° C., 10 h): 25 µg/mL
